These are literature values, as cited in US4127520A, “Novel nonadecapeptides, intermediates therefor, and compositions and methods employing said nonadecapeptides” (priority 1977, dated 1978).

The conditions of data set [1]: injected directly into the brain of the rat.
Data set [2] concerns partially purified brain opiate receptor sites. As to conditions: natural peptide.

As to “H-Tyr-Gly-Gly-Phe-Met-OH [methionine enkephalin]”, the analgesic activity result in data set [1] is “only weak analgesic agent of short duration”. Further, in data set [2], the “binding to partially purified brain opiate receptor sites” value was “binds stereo-specifically”.
